Tests used:
[1] = molecular target: Acetylcholinesterase (Electrophorus electricus, UniProt O42275)
Description: Inhibition of electric eel AChE using acetylthiocholine chloride as substrate by spectrophotometer analysis

[2] = molecular target: Cholinesterase (Equus caballus, UniProt P81908)
Description: Inhibition of equine serum BChE using butyrylthiocholine chloride as substrate by spectrophotometer analysis

[3] = test system: HepG2; assay: cells; details: Homo sapiens, HepG2, 48 h
[4] = Solubility of the compound; assay type: physicochemical

Chain of Acetylcholinesterase (O42275 whole entry): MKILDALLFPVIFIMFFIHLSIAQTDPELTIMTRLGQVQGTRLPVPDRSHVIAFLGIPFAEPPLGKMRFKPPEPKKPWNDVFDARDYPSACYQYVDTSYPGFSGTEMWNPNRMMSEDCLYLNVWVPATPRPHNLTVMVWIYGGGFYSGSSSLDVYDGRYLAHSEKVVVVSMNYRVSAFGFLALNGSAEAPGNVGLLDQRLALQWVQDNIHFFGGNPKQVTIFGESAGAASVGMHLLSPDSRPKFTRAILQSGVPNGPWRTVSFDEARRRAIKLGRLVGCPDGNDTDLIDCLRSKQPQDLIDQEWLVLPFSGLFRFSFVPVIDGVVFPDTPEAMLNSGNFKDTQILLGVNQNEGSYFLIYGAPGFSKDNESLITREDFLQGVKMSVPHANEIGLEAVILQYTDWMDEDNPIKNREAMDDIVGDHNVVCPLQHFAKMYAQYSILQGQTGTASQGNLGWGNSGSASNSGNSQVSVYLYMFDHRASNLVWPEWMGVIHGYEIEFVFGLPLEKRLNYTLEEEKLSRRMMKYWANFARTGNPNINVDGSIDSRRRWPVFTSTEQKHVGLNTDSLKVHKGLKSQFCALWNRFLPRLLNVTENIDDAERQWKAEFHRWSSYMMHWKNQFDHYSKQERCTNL
Chain of Cholinesterase (P81908 whole entry): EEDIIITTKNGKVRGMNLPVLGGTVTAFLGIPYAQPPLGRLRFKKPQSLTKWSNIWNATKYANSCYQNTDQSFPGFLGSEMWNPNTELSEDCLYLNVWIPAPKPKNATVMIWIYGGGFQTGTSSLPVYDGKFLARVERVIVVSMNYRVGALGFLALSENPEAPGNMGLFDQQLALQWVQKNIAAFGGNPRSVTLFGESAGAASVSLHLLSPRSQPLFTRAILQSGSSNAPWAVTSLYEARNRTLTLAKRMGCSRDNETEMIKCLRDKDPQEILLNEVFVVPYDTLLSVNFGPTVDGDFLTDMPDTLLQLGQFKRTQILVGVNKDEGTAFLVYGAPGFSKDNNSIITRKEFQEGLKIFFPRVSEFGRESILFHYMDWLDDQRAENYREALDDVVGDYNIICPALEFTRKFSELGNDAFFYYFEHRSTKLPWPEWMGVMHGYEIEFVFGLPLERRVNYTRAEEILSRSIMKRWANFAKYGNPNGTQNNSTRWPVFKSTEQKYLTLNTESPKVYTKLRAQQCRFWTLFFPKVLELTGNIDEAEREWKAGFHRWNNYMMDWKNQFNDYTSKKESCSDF

O=C(CNCCCO)Nc1cccc2ccccc12
IC50 [1]: > 50 µM | IC50 [2]: > 50 µM | IC50 [3]: > 100 µM

CN(C)CCNCC(=O)Nc1cccc2ccccc12
IC50 [1]: > 50 µM | IC50 [2]: 4.39 µM | IC50 [3]: > 100 µM

NCCCCNCC(=O)Nc1cccc2ccccc12
IC50 [1]: > 50 µM | IC50 [2]: 10.3 µM | IC50 [3]: > 100 µM

NCCCNCCCCNCC(=O)Nc1cccc2ccccc12
IC50 [1]: > 50 µM | IC50 [2]: 47.5 µM | IC50 [3]: > 100 µM

NCCCNCCCCNCCCNCC(=O)Nc1cccc2ccccc12
IC50 [1]: > 50 µM | IC50 [2]: > 50 µM | IC50 [3]: > 100 µM

CCN(CC)CC(=O)Nc1c2ccccc2cc2ccccc12.Cl
solubility [4]: Insoluble

Cl.O=C(CNC1CC1)Nc1c2ccccc2cc2ccccc12
solubility [4]: Insoluble

O=C(CNCCCO)Nc1c2ccccc2cc2ccccc12
IC50 [1]: > 50 µM | IC50 [2]: 0.502 µM | IC50 [3]: > 100 µM

CN(C)CCNCC(=O)Nc1c2ccccc2cc2ccccc12
IC50 [1]: > 50 µM | IC50 [2]: 0.161 µM | IC50 [3]: > 100 µM

NCCCNCC(=O)Nc1c2ccccc2cc2ccccc12
IC50 [1]: > 50 µM | IC50 [2]: 0.28 µM | IC50 [3]: > 100 µM

NCCCCNCC(=O)Nc1c2ccccc2cc2ccccc12
IC50 [1]: > 50 µM | IC50 [2]: 0.016 µM | IC50 [3]: > 100 µM

NCCCCCCNCC(=O)Nc1c2ccccc2cc2ccccc12
IC50 [1]: 2.74 µM | IC50 [2]: 0.023 µM | IC50 [3]: > 100 µM

NCCCNCCCNCC(=O)Nc1c2ccccc2cc2ccccc12
IC50 [1]: > 50 µM | IC50 [2]: 0.305 µM | IC50 [3]: > 100 µM

NCCCNCCCCNCC(=O)Nc1c2ccccc2cc2ccccc12
IC50 [1]: 25.1 µM | IC50 [2]: 0.164 µM | IC50 [3]: > 100 µM

NCCCNCCCCNCCCNCC(=O)Nc1c2ccccc2cc2ccccc12
IC50 [1]: > 50 µM | IC50 [2]: 0.657 µM | IC50 [3]: > 100 µM

O=C(CNCCCO)Nc1cccc2c1C(=O)c1ccccc1C2=O
IC50 [1]: 11.1 µM | IC50 [2]: > 50 µM | IC50 [3]: 23 µM

NCCCCNCC(=O)Nc1cccc2c1C(=O)c1ccccc1C2=O
IC50 [1]: 1.5 µM | IC50 [2]: > 50 µM | IC50 [3]: 24.2 µM

NCCCNCCCCNCC(=O)Nc1cccc2c1C(=O)c1ccccc1C2=O
IC50 [1]: 2.63 µM | IC50 [2]: 33 µM | IC50 [3]: 15.6 µM

NCCCNCCCCNCCCNCC(=O)Nc1cccc2c1C(=O)c1ccccc1C2=O
IC50 [1]: 7.22 µM | IC50 [2]: > 50 µM | IC50 [3]: 11.5 µM

O=C1c2c(O)ccc(O)c2C(=O)c2c(NCCNCCO)ccc(NCCNCCO)c21 [MITOXANTRONE]
IC50 [3]: 11.1 µM

Source: ChEMBL document CHEMBL3286236, “Novel aromatic-polyamine conjugates as cholinesterase inhibitors with notable selectivity toward butyrylcholinesterase” (Bioorg Med Chem, 2014)
